Values after ≈ are worked out from the molar mass of the structure shown. Read-outs that look alike come from different tables or passages of the source.
Tests used:
[1] = isomerisation of (Z)-isomer at ambient temperature; type: physicochemical
[2] = system: collagen-induced β-thromboglobulin release; assay: inhibition of collagen-induced β-thromboglobulin release in vitro in human blood; type: cell-based; conditions: read-out: ED50 (concentration which produced 50% inhibition of the β-thromboglobulin release)
[3] = system: blood platelets; conditions: cited from earlier work
[4] = system: artery and some other kinds of smooth muscle; conditions: cited from earlier work
[5] = cited from earlier work
[6] = system: arachidonic acid-induced blood platelet aggregation of the human; conditions: human platelets; cited from earlier work
[7] = system: diastolic blood pressure; assay: fall in diastolic blood pressure in anaesthetised rats; type: in vivo; conditions: rats anaesthetised with pentobarbitone; intravenously at a rate of 45 μg/kg animal body weight
Method: In other laboratory tests, compound B produced a 25% fall in diastolic blood pressure in rats (anaesthetised with pentobarbitone) when administered intravenously at a rate of 45 μg/kg animal body weight.

## O=C(O)CCC/C=C1/C[C@H]2[C@H](CC[C@@H]2/C=C/[C@@H](O)C2CCCCC2)C1=O (relative stereo) [(Z)-isomer]
[1]
  isomerisation back to the (E)-isomer: slowly isomerised back to the (E)-isomer

## CCCCCC(O)/C=C/[C@H]1CC[C@@H]2C(=O)/C(=C/CCCC(=O)O)C[C@@H]21 (relative stereo) [Compound E, (±)-(5E,13E)-(9S), [mixture of (15R) and (15S)]-6a-oxo-6,9-methano-15-hydroxyprosta-5,13-dienoic acid]
[2]
  IC50: 34 µg/mL

## CCCCC[C@H](O)/C=C/[C@H]1O[C@H]2C[C@H](O2)[C@@H]1C/C=C\CCCC(=O)O [thromboxane A2]
[3]
  aggregating activity on blood platelets: aggregating activity
[4]
  activity on the artery and some other kinds of smooth muscle: contracting activity

## O=C(O)CCC/C=C1\C[C@H]2[C@H](CC[C@@H]2/C=C/C(O)C2CCCCC2)C1=O (relative stereo) [Compound I, (±)-(5E,13E)-(9S),[mixture of (15R) and (15S)]-6a-oxo-6,9-methano-15-cyclohexyl-15-hydroxy-16,17,18,19,20-pentanorprosta-5,13-dienoic acid]
[2]
  IC50: < 17 µg/mL

## CCCCC[C@H](O)/C=C/[C@@H]1[C@H]2C/C(=C/CCCC(=O)O)O[C@H]2C[C@H]1O [PGI2, (5Z,13E)-(9S,11R,15S)-6,9-epoxy-11,15-dihydroxyprosta-5,13-dienoic acid]
[5]; pH 7.6, 22° C.
  time to deactivation in a buffer solution: 20 min
[5]; pH 7.6, 37° C.
  time to deactivation in a buffer solution: 10 min
[6]
  inhibition of arachidonic acid-induced blood platelet aggregation: strongly inhibits
[4]
  activity on the artery and some other kinds of smooth muscle: strong relaxing activity

## CCCCCC(O)/C=C/[C@H]1CC[C@@H]2C(=O)/C(=C\CCCC(=O)O)C[C@@H]21 (relative stereo) [Compound F, (±)-(5Z,13E)-(9S), [mixture of (15R) and (15S)]-6a-oxo-6,9-methano-15-hydroxyprosta-5,13-dienoic acid]
[2]
  IC50: < 17 µg/mL

## O=C(O)CCC/C=C1\C[C@H]2[C@H](CC[C@@H]2/C=C/[C@@H](O)C2CCCCC2)C1=O (relative stereo) [Compound B, (±)-(5E,13E)-(9S,15S)-6a-oxo-6,9-methano-15-cyclohexyl-15-hydroxy-16,17,18,19,20-pentanorprosta-5,13-dienoic acid]
[7]
  fall in diastolic blood pressure: 25%
[2]
  IC50: 5 µg/mL (≈ 13.9 µM)
